Results reported in US7202374B2, “Fullerene derivatives and their metal complexes” (Mitsubishi Chemical Corporation, priority 2002, dated 2007).

Assays:
[1] = Solubility in n-hexane (stir 1 hour, centrifuge, weigh dried residue of supernatant); format: physicochemical; details: for solubility in n-hexane: room temperature (25° C.), stirred 1 hour
Experimental: The solubility in n-hexane at 25° C. is determined as follows. In some detail, a predetermined amount of n-hexane is added to a fullerene derivative. The mixture is then stirred at 25° C. for 1 hour. The resulting slurry is then subjected to centrifugal separation. The solution is then decanted. The solvent is then distilled off the resulting supernatant liquid. The resulting precipitate is dried in vacuo, and then measured for weight. Thus, the solubility in n-hexane at 25° C. is calculated.
To 100 mg of C60[CH2Si(CH3)3]5H was added 0.5 ml of n-hexane. The mixture was then stirred at 25° C. for 1 hour. The slurry was purified, and then subjected to centrifugal separation by a centrifugal separator. The resulting supernatant liquid was withdrawn. The solvent was then distilled off. The residue was then dried in vacuo. The weight of the residue was then measured. The result was 32.5 mg.

[2] = Stability of the solid at room temperature in the air; format: physicochemical; details: solid (brown powder)

Row | solubility in n-hexane [1] | solubility in n-hexane measured at 50° C. ([1]; 50° C., otherwise same conditions as in Example 1) | stability when solid [2] | Substance
1 | less than 0.001 mg/ml | – | – | (CH3)5C60H
2 | 65 mg/mL | – | stable at room temperature in the air | C60[CH2Si(CH3)3]5H
3 | 11 mg/mL | – | stable at room temperature in the air | C60{CH2Si(CH3)3}3H

More lines, now with the values behind:

Row | Substance | solubility in n-hexane [1] | solubility in n-hexane measured at 50° C. ([1]; 50° C., otherwise same conditions as in Example 1) | stability when solid [2]
4 | (C6H5)5C60H | less than 0.001 mg/ml | – | –
5 | C60[CH2Si(CH3)3]2 | about 0.05 mg/ml | about 0.2 mg/ml | –
6 | Rh[C60{CH2Si(CH3)3}3](1,5-cyclooctadiene) | 5.0 mg/mL | – | –
